These results are taken from PMC6697720, “Saturation of acyl chains converts cardiolipin from an antagonist to an activator of Toll-like receptor-4” (Cellular and Molecular Life Sciences: CMLS, 2019).

The assay deals with primary human monocytes. Kind of assay: TNF-α and IL-1β secretion in primary human monocytes incubated with CL. In kind it is cell-based. The settings on record: CL alone, overnight. The procedure: Human monocytes were isolated from PBMCs by immunomagnetic negative selection using the EasySep™ human monocyte enrichment kit without CD16 depletion (STEMCELL™ Technologies).
100.000 of freshly isolated PBMCs or monocytes were mixed with stimulants to a final volume of 160 μL/well in round bottom 96-well plates.
After stimulation, supernatants were collected, centrifuged, and assayed for cytokine secretion, while cells were assayed for viability.
TNF-α and IP-10 were quantified in cell supernatants using DuoSet ELISA kits from R&D Systems and human IL-1β using Instant ELISA™ Kit from Invitrogen, according to the manufacturer’s instructions. Absorbance was read with a BioTek Synergy HT Microplate Readers.
Fig. 3 Saturated but not unsaturated CLs have pro-inflammatory properties. a RAW-Blue™ cells were incubated overnight with the indicated amount of CL or LPS, supernatants were collected, and NF-κB activation quantified via Quanti-Blue™ test and reported here as fold induction as compared to control. Unpaired t test: differences with respect to the control (Ctrl) are not significant if p > 0.05 (no symbol); *p ≤ 0.0007. b Immortalized BMDM cells were incubated overnight with the indicated amount of CL or LPS; supernatants were collected and TNF-α quantified via ELISA assay. c, d Primary human monocytes were incubated overnight with the indicated amount of CL or LPS with or without the NLRP3 inhibitor MCC950, supernatants were collected, and TNF-α and IL-1β were quantified via ELISA assay. Graphs are representative of experiments from six different donors. Unpaired t test: differences with respect to the control (Ctrl) are not significant if p > 0.05 (no symbol); *p ≤ 0.021. Each bar represents the mean + standard deviation of three biological replicates (n = 3). Graphs are representative of at least three independent experiments
C18:0 and C18:2 CLs’ pro-inflammatory activities were validated in primary monocytes isolated from human donor blood. C18:0 CL but not C18:2 CL reproduced LPS activity inducing TNF-α and IL-1β secretion in a dose-dependent manner (Fig. 3c, d).

Consider `CCCCCCCCCCCCCCCCCC(=O)OC[C@H](COP(=O)(O)OCC(O)COP(=O)(O)OC[C@@H](COC(=O)CCCCCCCCCCCCCCCCC)OC(=O)CCCCCCCCCCCCCCCCC)OC(=O)CCCCCCCCCCCCCCCCC` (some centres unmarked) [C18:0 CL], for which the IL-1β secretion result is listed as “inducing” and the TNF-α secretion entry was “inducing”.
